How the values were obtained:
[1] = Release (dissolution) profile of modified-release tablets, USP Apparatus 1 (baskets) at 100 rpm, 500 mL aqueous sodium phosphate 0.05 M, pH 6.8; type: physicochemical
Text: USP Apparatus 1 (BASKETS) is described, for example, in the United States Pharmacopeial Convention, Feb. 1, 2012, Chapter <711> (“Dissolution”), incorporated by reference herein in its entirety. See http://www.usp.org/sites/default/files/usp_pdf/EN/USPNF/revisions/m99470-gc_711.pdf. The USP Apparatus 1 (baskets) assembly consists of the following: a vessel, which may be covered, made of glass or other inert, transparent material; a motor; a metallic drive shaft, and a cylindrical basket. The materials should not sorb, react, or interfere with the specimen being tested. The vessel is partially immersed in a suitable water bath of any convenient size or heated by a suitable device such as a heating jacket. The water bath or heating device permits holding the temperature inside the vessel at 37±0.5° during the test and keeping the bath fluid in constant, smooth motion. No part of the assembly, including the environment in which the assembly is placed, contributes significant motion, agitation, or vibration beyond that due to the smoothly rotating stirring element. An apparatus that permits observation of the specimen and stirring element during the test is preferable. The vessel is cylindrical, with a hemispherical bottom and with one of the following dimensions and capacities: for a nominal capacity of 1 L, the height is 160 mm to 210 mm and its inside diameter is 98 mm to 106 mm; for a nominal capacity of 2 L, the height is 280 mm to 300 mm and its inside diameter is 98 mm to 106 mm; and for a nominal capacity of 4 L, the height is 280 mm to 300 mm and its inside diameter is 145 mm to 155 mm. Its sides are flanged at the top. A fitted cover may be used to retard evaporation. If a cover is used, it provides sufficient openings to allow ready insertion of the thermometer and withdrawal of specimens. The shaft is positioned so that its axis is not more than 2 mm at any point from the vertical axis of the vessel and rotates smoothly and without significant wobble that could affect the results. The vertical center line of the blade passes through the axis of the shaft so that the bottom of the blade is flush with the bottom of the shaft. A distance of 25±2 mm between the bottom of the blade and the inside bottom of the vessel is maintained during the test. The metallic or suitably inert, rigid blade and shaft comprise a single entity. A suitable two-part detachable design may be used provided the assembly remains firmly engaged during the test. […]
The release profiles for modified-release tablets were measured using USP Apparatus 1 (baskets).
All release profiles disclosed in Tables 6a-6d were measured with USP Apparatus 1 (baskets) at 100 rpm in 500 mL of aqueous sodium phosphate at a concentration of 0.05 M (pH=6.8). […]

[2] = Example 8: 22-week randomized, double-blind, placebo-controlled study (PVR, 6MWD, plasma levels, adverse events); type: in vivo, human
Method: A 22-week randomized, double-blind, placebo-controlled study with a dose titration period of up to 9 weeks was conducted. Sixty-one patients were randomized 2:1 Compound 1 to placebo. Right Heart Catheterization (RHC) measurements were obtained prior to study Day 1 of the dose titration period and at Week 22. The following values were obtained and recorded: pulmonary artery pressure (PAP) (systolic, diastolic, and mean), heart rate (HR), right atrial pressure (RAP), pulmonary capillary wedge pressure (PCWP) right ventricular pressure (RVP) and cardiac output (CO), pulmonary vascular resistance (PVR), arterial and mixed venous oxygen saturation […] (if applicable). Systemic vascular resistance (SVR) was estimated from blood pressure measurements. The 6-minute walk test (6MWD) was conducted according to the modified guidelines issued by the American Thoracic Society. See Am J Respir Crit Care Med 166:111-117, 2002.
Primary efficacy endpoints for the study were: a) change from baseline in PVR after 22 weeks of treatment, and b) change from baseline in 6 MWD after 22 weeks of treatment.
Compound 1 was administered as a capsule in 0.01, 0.02, 0.03, 0.04, and 0.10 mg dose strengths. The formulation was supplied as a liquid-filled, size 4, hard-gelatin capsule containing Compound 1, polyoxyl 40 hydrogenated castor oil (Kolliphor® RH40) NF, butylated hydroxytoluene (BHT)NF, and colloidal silicon dioxide NF.
The starting dose of Compound 1 was 0.01 mg twice daily. The dose of Compound 1 was titrated according to patient tolerability. If the initial dose was tolerated (0.01 mg twice daily), then the dose was increased once a week in the following fashion: 0.02 mg twice daily, 0.03 mg twice daily, 0.04 mg twice daily, 0.06 mg twice daily, 0.08 mg, 0.1 mg twice daily, 0.2 mg twice daily and 0.3 mg twice daily. The dose was optionally escalated to a possible maximum total daily dose of 0.6 mg (0.3 mg twice daily), pending tolerability.

[3] = Plasma pharmacokinetics of Compound 1 stated in background and description (initial clinical studies); type: in vivo; conditions: immediate-release capsule formulation

difference of % by weight released, initial profile vs after storage ([1]; tablets 0.05 mg and 0.5 mg Compound 1 (FIGS. 12, 13), storage at 40° C. and 75% RH for six months, any time point equal to or greater than 2 hours): ≤ 10%
Cmax and peak-trough fluctuation [3]: high Cmax and peak-trough fluctuation
Structure (SMILES): O=C(O)COC[C@H]1CC[C@H](COC(=O)N(c2ccccc2)c2ccc(Cl)cc2)CC1 [Compound 1, 2-(((1r,4r)-4-(((4-chlorophenyl)(phenyl)carbamoyloxy)methyl)cyclohexyl)methoxy)acetic acid]
release rate relative to modified-release capsule ([1]; tablets 0.5 mg Compound 1 with 40% HPMC K4M CR, 100 mg, 7 kP): faster than that of the modified-release capsule
release rate relative to modified-release capsule ([1]; tablets with 30% HPMC K4M and 20% HPMC K100 LVCR, wet granulation): slightly faster than that of the modified-release capsule
release rate relative to modified-release capsule ([1]; tablets with 40% HPMC K4M and 10% HPMC K100 LVCR, wet granulation): faster than that of the modified-release capsule at time points <6 hrs but slower than that of the modified-release capsule at time points 6 hrs
Adverse events ([2]; 22-week study): consistent with other prostacyclin treatments
6-minute walk distance (6MWD) ([2]; after 22 weeks of treatment): numerical improvement
change from baseline in pulmonary vascular resistance (PVR) compared to placebo ([2]; after 22 weeks of treatment, capsule twice daily, titrated up to 0.3 mg twice daily): statistically significant change from baseline
mean pre-dose and 4-hours post-dose plasma levels ([2]; immediate-release capsule twice daily, titrated, patients): appear similar to those previously observed in healthy human subjects
correlation of 4 hour post-dose plasma concentrations with percent change from baseline in PVR and 6MWD ([2]; in vivo): strong and positive correlation

Source: US12642771B2, “Compositions comprising PGI2-receptor agonists and processes for the preparation thereof” (Arena Pharmaceuticals, Inc., priority 2017, dated 2026)
